Patent publication US20170050966A1, “INHIBITING THE TRANSIENT RECEPTOR POTENTIAL A1 ION CHANNEL” (HYDRA BIOSCIENCES, INC., priority 2014, published 2017)
In brackets after ≈: the same amount, converted by molar mass. Read-outs that look alike come from different tables or passages of the source.

How the values were obtained:
[1] = target: CYP3A4 (Homo sapiens, UniProt P08684); assay: P450 Cyp-inhibition luminescent assay; type: biochemical
Experimental: (§1) The ability of Compound 2 to inhibit human CYP450 enzymes was evaluated. Compound 1 and Compound 2 were tested in standard P450 Cyp-inhibition luminescent assay.

[2] = target: T1, CYP1A2 (Homo sapiens, UniProt P05177); assay: P450 Cyp-inhibition luminescent assay; type: biochemical
T1 sequence (P05177 1-516): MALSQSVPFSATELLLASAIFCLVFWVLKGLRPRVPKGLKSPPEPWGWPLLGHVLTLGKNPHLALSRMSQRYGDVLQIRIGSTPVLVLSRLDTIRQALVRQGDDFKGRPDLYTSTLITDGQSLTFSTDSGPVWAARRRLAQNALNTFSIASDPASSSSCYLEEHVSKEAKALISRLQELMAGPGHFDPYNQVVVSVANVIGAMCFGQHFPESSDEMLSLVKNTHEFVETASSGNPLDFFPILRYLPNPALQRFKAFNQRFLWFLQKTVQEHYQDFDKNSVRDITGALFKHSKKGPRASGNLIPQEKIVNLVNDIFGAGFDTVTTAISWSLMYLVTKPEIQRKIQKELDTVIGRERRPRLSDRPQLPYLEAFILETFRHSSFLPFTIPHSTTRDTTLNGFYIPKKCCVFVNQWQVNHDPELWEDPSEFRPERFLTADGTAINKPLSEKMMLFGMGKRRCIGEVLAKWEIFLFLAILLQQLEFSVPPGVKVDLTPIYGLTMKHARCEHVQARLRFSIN
Experimental: as §1

[3] = target: CYP2D6 (Homo sapiens, UniProt P10635); assay: P450 Cyp-inhibition luminescent assay; type: biochemical
Chain of CYP2D6 (P10635 whole entry): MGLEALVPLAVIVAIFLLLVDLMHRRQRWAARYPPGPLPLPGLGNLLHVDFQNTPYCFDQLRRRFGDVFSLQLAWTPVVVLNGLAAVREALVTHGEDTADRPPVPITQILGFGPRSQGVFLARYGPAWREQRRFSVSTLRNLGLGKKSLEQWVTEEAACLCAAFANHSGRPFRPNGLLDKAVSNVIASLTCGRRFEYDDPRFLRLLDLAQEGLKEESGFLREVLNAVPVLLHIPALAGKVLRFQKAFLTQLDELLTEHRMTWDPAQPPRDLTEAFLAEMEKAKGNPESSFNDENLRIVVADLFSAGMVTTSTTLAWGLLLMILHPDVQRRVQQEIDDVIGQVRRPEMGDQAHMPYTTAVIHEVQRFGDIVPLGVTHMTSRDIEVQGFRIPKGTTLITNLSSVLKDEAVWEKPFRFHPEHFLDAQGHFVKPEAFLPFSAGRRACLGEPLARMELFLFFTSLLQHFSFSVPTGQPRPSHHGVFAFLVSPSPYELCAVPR
Experimental: as §1

[4] = target: CYP2C19 (Homo sapiens, UniProt P33261); assay: P450 Cyp-inhibition luminescent assay; type: biochemical
Chain of CYP2C19 (P33261 whole entry): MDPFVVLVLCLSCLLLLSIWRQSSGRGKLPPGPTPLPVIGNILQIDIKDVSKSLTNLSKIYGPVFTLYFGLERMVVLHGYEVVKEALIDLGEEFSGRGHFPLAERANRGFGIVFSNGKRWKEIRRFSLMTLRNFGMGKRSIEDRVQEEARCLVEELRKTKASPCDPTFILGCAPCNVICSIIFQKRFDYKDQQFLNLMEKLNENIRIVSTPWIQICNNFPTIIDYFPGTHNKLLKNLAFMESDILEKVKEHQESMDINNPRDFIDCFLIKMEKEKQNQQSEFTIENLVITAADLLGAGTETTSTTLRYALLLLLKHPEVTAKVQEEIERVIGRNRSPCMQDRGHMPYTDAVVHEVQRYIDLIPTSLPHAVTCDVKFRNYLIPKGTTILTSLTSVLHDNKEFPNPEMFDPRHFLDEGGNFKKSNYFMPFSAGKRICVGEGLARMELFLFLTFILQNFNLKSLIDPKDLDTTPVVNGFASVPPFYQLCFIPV
Experimental: as §1

[5] = target: CYP2C9 (Homo sapiens, UniProt P11712); assay: P450 Cyp-inhibition luminescent assay; type: biochemical
Chain of CYP2C9 (P11712 whole entry): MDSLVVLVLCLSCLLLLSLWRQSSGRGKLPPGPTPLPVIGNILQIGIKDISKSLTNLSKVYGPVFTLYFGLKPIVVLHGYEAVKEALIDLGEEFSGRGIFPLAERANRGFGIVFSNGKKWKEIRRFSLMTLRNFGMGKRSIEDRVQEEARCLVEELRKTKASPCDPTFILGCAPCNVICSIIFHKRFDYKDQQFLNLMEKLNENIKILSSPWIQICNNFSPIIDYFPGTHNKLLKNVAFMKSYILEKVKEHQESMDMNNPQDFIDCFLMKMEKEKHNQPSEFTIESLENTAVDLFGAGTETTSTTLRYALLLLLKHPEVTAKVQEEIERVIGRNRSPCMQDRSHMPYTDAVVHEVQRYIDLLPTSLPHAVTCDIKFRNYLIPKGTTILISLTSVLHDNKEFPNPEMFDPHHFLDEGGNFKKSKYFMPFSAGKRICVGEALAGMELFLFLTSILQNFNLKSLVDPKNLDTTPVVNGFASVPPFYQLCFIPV
Experimental: as §1

[6] = Metabolic stability in liver microsomes; type: in vitro ADME, human; details: 1 μM test compound; for half-life at 1 μM: human, liver microsomes, 37° C.
Experimental: Metabolic stability of the compounds of Formula (I) was determined by standard liver microsome assays. Briefly, metabolic stability was tested by adding the compound to be tested dissolved in DMSO to human, dog, or rat liver microsomes. Assays were run with a starting concentration of 1 μM test compound. The reaction was initiated by addition of nicotinamide adenine dinucleotide phosphate[…] (NADPH) regeneration components at 37° C., at which time an aliquot was immediately quenched in an ice-cold acetonitrile/methanol/water solution. Reaction mixture was incubated at 37° C. on a shaker, and additional aliquots were taken at 7, 15, 30 and 60 minutes. Following quench and centrifugation, samples were analyzed on HPLC/MS/MS.

[7] = Kinetic solubility in buffered solutions; type: physicochemical; details: aqueous buffer, kinetic from dmso stock, 24 hours ambient
Experimental: The solubilities of the compounds of Formula (I) were tested using the procedure outlined in Kerns, E. H., J Pharm Sci (2001) 90:1838-1858, incorporated herein by reference and described below. Data for solubility was obtained by this method for compounds of Formula (I) and included in Table 3. The chromatographic data was performed by HPLC using an Xbridge Shield RP18 column with the following column dimensions: 4.6×30 mm, 3.5 μm. The mobile phase consisted of deionized water (MPA) with trifluoroacetic acid added in at 0.1% (v/v) (MPC) and HPLC-grade acetonitrile (MPB). The mobile phase flow rate was 2.5 mL/min with the column and sampling operating at ambient temperature. UV detection was set to 280 nm.
Samples for analysis of the compounds of Formula (I) were prepared at a % v/v=1/19 (i.e., 10 μL of the stock solution into 190 μL of buffer) by spiking stock solutions of the compounds of Formula (I) into buffered solutions. Three buffered solution systems were prepared: pH 4.0 prepared from 50 mM sodium acetate in a 5% dextrose in water solution, pH 7.4 prepared from 75 mM sodium phosphate in a 1:1 ratio of sterilized water for injection to a 5% dextrose in water solution, and pH 9.0 prepared from 50 mM sodium bicarbonate in a 1:2 ratio of sterilized water for injection to a 5% dextrose in water solution. The samples were incubated on a microplate shaker at 300 rpm for 24 hours at ambient temperature. Following incubation, the samples were centrifuged for five minutes at 13 k rpm at ambient temperature. The resulting supernantant was extracted for HPLC analysis.

[8] = Storage stability of anhydrous solid crystalline form (XRPD); type: physicochemical; details: Form B, ambient conditions for three months
Excerpt: After storage of this solid crystalline form at ambient conditions for three months, the sample was subjected to XRPD analysis again.

[9] = system: CFA-induced cold hyperalgesia model in the rat; assay: CFA-induced cold hypersensitivity, paw withdrawal latency; type: in vivo; details: for Pre-RX PWL / Pre-Rx PWL: before dosing
Experimental: Embodiments of the invention may be efficacious in the treatment of inflammatory pain. Compound 2 tested by the CFA-induced pain test method. […]
Briefly, the hind paw is sensitized to cold temperature (allodynic), by administering 0.1 mL of Complete Freund's Adjuvant (CFA) is administered to the right hind paw. Three days later, the time taken for the animal to lift its CFA-injected paw is recorded compared to its un-injected normal left hind paw. […] To avoid tissue damage the maximum cut-off time is 5 minutes. Animals that are allodynic (average PWL to the first three pain behaviors <150 seconds for the CFA-injected hind paw: ˜≧50% difference between the normal and CFA-injected paw) are included in the study and subsequently randomized across treatment groups. The following day, the animals are dosed under blinded conditions. Following the 1-2 hour pre-treatment time, the post-dose PWL readings are again taken. The efficacy of the drug treatment is assessed by comparing the PWL in the drug treatment animals to those animals that receive the vehicle.
Compound 4 was also tested using the methods disclosed.
In a further study, compounds of the invention were tested for efficacy at low doses for the treatment of inflammatory pain. Using the methods disclosed in above, Compound 2 was dosed at ranges of 0.1 to 1 mg/kg PO. The positive comparator TRPA1 antagonist Compound A was also tested at a dose of 150 mg/kg IP. […] Oral drug delivery was accomplished using a 20-gauge 1½″ oral gavage needle and a 5 cc syringe. Fed rats received a single oral gavage of Compound 2 at 0.03, 0.1, 0.3, or 1 mg/kg or Vehicle, 2 hours prior to testing

[10] = sodium acetate buffer, pH 4.0, 50 mM sodium acetate, read-out: pH 4.0 solubility
[11] = sodium bicarbonate buffer, pH 9.0, 50 mM sodium bicarbonate, read-out: pH 9.0 solubility
[12] = sodium phosphate buffer, pH 7.4, 75 mM sodium phosphate, read-out: pH 7.4 solubility
[13] = 1 mg/kg PO, suspension in 0.5% methylcellulose

Chain of CYP3A4 (P08684 whole entry): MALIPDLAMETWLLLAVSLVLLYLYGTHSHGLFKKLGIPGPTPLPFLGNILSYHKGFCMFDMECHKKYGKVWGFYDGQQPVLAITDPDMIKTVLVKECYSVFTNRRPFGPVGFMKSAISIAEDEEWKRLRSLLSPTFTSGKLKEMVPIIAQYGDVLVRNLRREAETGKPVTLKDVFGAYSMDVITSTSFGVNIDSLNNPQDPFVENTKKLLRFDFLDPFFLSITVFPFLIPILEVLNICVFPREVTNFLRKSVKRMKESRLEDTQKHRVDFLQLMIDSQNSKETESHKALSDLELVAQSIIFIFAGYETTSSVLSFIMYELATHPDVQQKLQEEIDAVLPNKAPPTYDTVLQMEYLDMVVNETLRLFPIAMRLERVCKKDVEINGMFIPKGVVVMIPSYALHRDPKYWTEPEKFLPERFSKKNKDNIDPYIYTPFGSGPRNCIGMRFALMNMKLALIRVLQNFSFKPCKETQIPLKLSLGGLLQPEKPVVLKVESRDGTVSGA

C[C@@H](C(=O)Nc1ccnc(-c2cnc(N3CCCC3(C)C)nc2)n1)n1cnc2c1c(=O)n(C)c(=O)n2C [Compound 1, (S)-2-(1,3-dimethyl-2,6-dioxo-2,3-dihydro-1H-purin-7(6H)-yl)-N-(2′-(2,2-dimethylpyrrolidin-1-yl)-[2,5′-bipyrimidin]-4-yl)propanamide]
CYP 3A4: % Inhibition [1]: 26.9% | CYP 1A2: % Inhibition [2]: 4.2% | CYP 2D6: % Inhibition [3]: 9% | CYP 2C19: % Inhibition [4]: 45.9% | CYP 2C9: % Inhibition [5]: 71.4% | Human Liver Microsomes Hepatic Clearance [6]: 0.96 L/h/kg | half-life at 1 μM [6]: 9 min | solubility kinetic at 24 h [7, 10]: 0.004 mg/mL (≈ 7.93 µM) | solubility kinetic at 24 h [7, 11]: 0.002 mg/mL (≈ 3.96 µM) | solubility kinetic at 24 h [7, 12]: 0.003 mg/mL (≈ 5.95 µM)

C[C@@H](C(=O)Nc1ccnc(-c2cnc(N3CCC[C@H]3C(F)(F)F)nc2)n1)n1cnc2c1c(=O)n(C)c(=O)n2C [Compound 2, (S)-2-(1,3-dimethyl-2,6-dioxo-2,3-dihydro-1H-purin-7(6H)-yl)-N-(2′-((S)-2-(trifluoromethyl)pyrrolidin-1-yl)-[2,5′-bipyrimidin]-4-yl)propanamide]
CYP 3A4: % Inhibition [1]: 2.7% | CYP 1A2: % Inhibition [2]: 0.299% | CYP 2D6: % Inhibition [3]: 6.3% | CYP 2C19: % Inhibition [4]: 29.1% | CYP 2C9: % Inhibition [5]: 39.6% | Human Liver Microsomes Hepatic Clearance [6]: 0.48 L/h/kg | half-life at 1 μM [6]: 43 min | XRPD pattern after storage [8]: matches the original indexed pattern | solubility kinetic at 24 h [7, 10]: 0.085 mg/mL (≈ 156 µM) | solubility kinetic at 24 h [7, 11]: 0.069 mg/mL (≈ 127 µM) | solubility kinetic at 24 h [7, 12]: 0.071 mg/mL (≈ 130 µM) | reversal of CFA-induced cold hypersensitivity ([9]; 0.03 mg/kg PO): did not exert a statistically significant effect | PWL Change ([9]; 0.03 mpk PO, 2 hours prior to testing): 14.8 s | reversal of CFA-induced cold hypersensitivity ([9]; 0.1, 0.3, and 1 mg/kg PO): significant reversal of CFA-induced cold hypersensitivity | PWL Change ([9]; 0.1 mpk PO, 2 hours prior to testing): 43.1 s | Post RX PWL ([9]; 0.3 mpk PO): 197.7 s | Pre-RX PWL ([9]; 0.3 mpk PO group): 104.0 s | PWL Change ([9]; 0.3 mpk PO, 2 hours prior to testing): 74.1 s | Post RX PWL ([9]; 1 mpk PO): 243.0 s | Pre-RX PWL ([9]; 1 mpk PO group): 103.7 s | PWL Change ([9]; 1 mpk PO, 2 hours prior to testing): 104.8 s | Post RX PWL ([9]; 3 mpk PO): 249.6 s | Pre-RX PWL ([9]; 3 mpk PO group): 103.9 s | Post RX PWL ([9]; 10 mpk PO): 237.3 s | Pre-RX PWL ([9]; 10 mpk PO group): 104.0 s | effect on cold hypersensitivity ([9]; oral doses of 0.3 to 10 mg/kg): attenuated cold hypersensitivity

C[C@@H](C(=O)Nc1ccnc(-c2cnc(N3CCC[C@@H]3C(F)(F)F)nc2)n1)n1cnc2c1c(=O)n(C)c(=O)n2C [Compound 4, (S)-2-(1,3-dimethyl-2,6-dioxo-2,3-dihydro-1H-purin-7(6H)-yl)-N-(2′-((R)-2-(trifluoromethyl)pyrrolidin-1-yl)-[2,5′-bipyrimidin]-4-yl)propanamide]
half-life at 1 μM [6]: 19.8 min | Pre-Rx PWL ([9]; 1 mg/kg PO group, suspension in 0.5% methylcellulose): 101.7 s | PWL Change [9, 13]: 148.6 s | Post-Rx PWL [9, 13]: 250.3 s | Pre-Rx PWL ([9]; 3 mg/kg PO group, suspension): 101.1 s | PWL Change ([9]; 3 mg/kg PO, suspension): 140.9 s | Post-Rx PWL ([9]; 3 mg/kg PO, suspension): 242.1 s | Pre-Rx PWL ([9]; 10 mg/kg PO group, suspension): 101.5 s | PWL Change ([9]; 10 mg/kg PO, suspension): 132.6 s | Post-Rx PWL ([9]; 10 mg/kg PO, suspension): 234.1 s
